Data reported in patent US20220372020A1, “CRYSTALLINE FORMS OF PHTHALAZINONE COMPOUND” (Idience Co., Ltd., priority 2020, published 2022).

Legend:
[1] = Long-term stability purity test (total impurities by HPLC); format: physicochemical; conditions: relative humidity 60±5%; for Total impurities content: HPLC
Protocol: Crystalline Form A of the compound of Formula 1 prepared in Example 1 was stored under long-term storage conditions (25±2° C., and Relative humidity: 60±5%). Samples were taken after 3 months, 6 months, 9 months, 12 months, 18 months, and even 24 months from the onset of the storage to measure total impurities content by high performance liquid chromatography (HPLC).

[2] = Storage behaviour of the amorphous form; format: physicochemical
From the text: The obtained amorphous form readily absorbed water during the storage, i.e., it was hygroscopic, whereby the color turned yellow. It was thus confirmed that the amorphous form was not suitable for use as a medicinal drug substance.

[3] = system: poly(ADP-ribose) polymerase (PARP); conditions: as disclosed in US'973; cited from earlier work

With `Cl.O=C(c1cc(Cc2n[nH]c(=O)c3ccccc23)ccc1F)N1CC(CNC2CC2)C1` [Crystalline Form A, 4-[3-(3-[(cyclopropylamino)methyl]azetidine-1-carbonyl)-4-fluorobenzyl]phthalazin-1(2H)-one hydrochloride] the Total impurities content ([1]; 3 months, 25±2° C.) was 0.15% wt %, the Total impurities content ([1]; 6 months, 25±2° C.) was 0.16% wt % and the Total impurities content ([1]; 9 months, 25±2° C.) was 0.15% wt %. The Total impurities content ([1]; 12 months, 25±2° C.) was 0.14% wt %, the Total impurities content ([1]; 18 months, 25±2° C.) was 0.19% wt % and the “Stability under long-term storage conditions (in words)” value ([1]; 25±2° C., up to 24 months) was “high stability”. For the same molecule, the Total impurities content ([1]; Initial, long-term storage 25±2° C.) was 0.14% wt %.
With `Cl.O=C(c1cc(Cc2n[nH]c(=O)c3ccccc23)ccc1F)N1CC(CNC2CC2)C1` [amorphous form, 4-[3-(3-[(cyclopropylamino)methyl]azetidine-1-carbonyl)-4-fluorobenzyl]phthalazin-1(2H)-one hydrochloride] the “Colour change during storage” value [2] was “turned yellow” and the “Water absorption during storage (hygroscopicity)” value [2] was “hygroscopic”.
For `Cl.O=C(c1cc(Cc2n[nH]c(=O)c3ccccc23)ccc1F)N1CC(CNC2CC2)C1` [compound of Formula 1, 4-[3-(3-[(cyclopropylamino)methyl]azetidine-1-carbonyl)-4-fluorobenzyl]phthalazin-1(2H)-one hydrochloride], the PARP inhibitory activity [3] is listed as “PARP inhibitory activity”.
